Assay results taken from US20240158392A1 (Janssen Biotech, Inc., priority 2021, published 2024).
Like-named read-outs stand apart in the source and are kept apart here.

Target: SIK2 (Homo sapiens, UniProt Q9H0K1)
Experiment: SIK2 Enzymatic Assay High Version 2 (High ATP)
Format: biochemical
Procedure, shortened: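 At room temperature, enzyme (6 nM, 2× final) was preincubated with compound for 30 min, then 6 mM ATP and 400 μM HDAC5tide (both 2× final) were added for 2 h. ADP formed was measured by ADP-Glo Max (2 h reagent, 1 h detection) using luminescence.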

[1] = enzyme 6 nM, 6 mM ATP and 400 μM HDAC5tide (each 2× final concentration), 30 minutes pre-incubation, 2 hours, ADP-Glo Max luminescence, read-out: SIK2 high ATP IC50 (μM) (Test Example 2)

Sequence of SIK2 (Q9H0K1 whole entry, species assumed): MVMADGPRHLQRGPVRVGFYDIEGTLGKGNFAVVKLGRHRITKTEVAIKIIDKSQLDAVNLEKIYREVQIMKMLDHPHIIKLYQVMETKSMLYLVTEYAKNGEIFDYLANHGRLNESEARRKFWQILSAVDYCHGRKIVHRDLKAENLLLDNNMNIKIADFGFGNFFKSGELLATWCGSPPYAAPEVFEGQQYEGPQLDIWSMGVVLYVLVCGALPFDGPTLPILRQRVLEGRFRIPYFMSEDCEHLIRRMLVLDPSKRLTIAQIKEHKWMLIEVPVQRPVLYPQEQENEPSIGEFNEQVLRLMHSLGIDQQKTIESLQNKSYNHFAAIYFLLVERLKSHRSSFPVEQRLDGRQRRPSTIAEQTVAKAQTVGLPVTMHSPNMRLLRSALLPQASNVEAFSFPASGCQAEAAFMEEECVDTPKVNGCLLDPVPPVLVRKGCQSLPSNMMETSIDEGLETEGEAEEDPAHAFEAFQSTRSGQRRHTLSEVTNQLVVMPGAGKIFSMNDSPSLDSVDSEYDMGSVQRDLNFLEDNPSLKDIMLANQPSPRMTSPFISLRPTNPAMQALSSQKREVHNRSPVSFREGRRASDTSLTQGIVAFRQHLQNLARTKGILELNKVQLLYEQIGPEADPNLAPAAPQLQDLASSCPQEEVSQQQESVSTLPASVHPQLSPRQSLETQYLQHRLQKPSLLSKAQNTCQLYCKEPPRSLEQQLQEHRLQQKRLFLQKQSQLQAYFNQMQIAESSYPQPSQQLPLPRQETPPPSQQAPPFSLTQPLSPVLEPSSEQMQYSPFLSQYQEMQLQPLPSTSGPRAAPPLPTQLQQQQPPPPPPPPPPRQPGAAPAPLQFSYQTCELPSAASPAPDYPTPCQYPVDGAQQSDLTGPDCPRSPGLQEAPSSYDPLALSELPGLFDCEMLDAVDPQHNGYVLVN

Row | IC50 [1] [µM] | Structure (SMILES) | IC50 [µM]
1 | 0.0641 | Cc1cc(-c2ccn3nc(Nc4cc(C)c(C)nn4)cc3c2)c(OCC(C)(C)O)cn1 [Example 201, 1-[[4-[2-[(5,6-dimethylpyridazin-3-yl)amino]pyrazolo[1,5-a]pyridin-5-yl]-6-methyl-3-pyridyl]oxy]-2-methyl-propan-2-ol] | –
2 | 0.00997 | Cc1cc(-c2ccn3nc(Nc4cc(C)nc(C)n4)cc3c2)c(OCCC(C)(C)O)cn1 [Example 555, 4-[[4-[2-[(2,6-dimethylpyrimidin-4-yl)amino]pyrazolo[1,5-a]pyridin-5-yl]-6-methyl-3-pyridyl]oxy]-2-methyl-butan-2-ol] | –
3 | 0.0275 | Cc1cc(-c2ccn3nc(Nc4cc(C)nc(C)n4)cc3c2)c(OC[C@H](C)C(C)(C)O)cn1 [Example 554, (3S)-4-[[4-[2-[(2,6-dimethylpyrimidin-4-yl)amino]pyrazolo[1,5-a]pyridin-5-yl]-6-methyl-3-pyridyl]oxy]-2,3-dimethyl-butan-2-ol] | –
4 | < 0.000847 | Cc1cc(-c2ccn3nc(Nc4cc(C)nc(C5CC5)n4)cc3c2)c(OCC(C)(C)C#N)cn1 [Example 310, 3-[[4-[2-[(2-cyclopropyl-6-methyl-pyrimidin-4-yl)amino]pyrazolo[1,5-a]pyridin-5-yl]-6-methyl-3-pyridyl]oxy]-2,2-dimethyl-propanenitrile] | –
5 | 0.00229 | Cc1cc(Nc2cc3cc(-c4cc(OCCF)ncc4OCC(C)(C)C#N)ccn3n2)nc(C)n1 [Example 673, 3-[[4-[2-[(2,6-dimethylpyrimidin-4-yl)amino]pyrazolo[1,5-a]pyridin-5-yl]-6-(2-fluoroethoxy)-3-pyridyl]oxy]-2,2-dimethyl-propanenitrile] | –
6 | 0.0055 | Cc1cc(-c2ccn3nc(Nc4cc(C)nc(C)n4)cc3c2)c(OC2CCS(=O)(=O)CC2)cn1 [Example 550, N-(2,6-dimethylpyrimidin-4-yl)-5-[5-(1,1-dioxothian-4-yl)oxy-2-methyl-4-pyridyl]pyrazolo[1,5-a]pyridin-2-amine] | –
7 | 0.00226 | Cc1cc(-c2ccn3nc(Nc4cc(C)nc(C)n4)cc3c2)c(OC[C@@]23CN[C@@H](CO2)C3)cn1 [Example 238, N-(2,6-dimethylpyrimidin-4-yl)-5-[2-methyl-5-[[(1R,4R)-5-oxa-2-azabicyclo[2.2.1]heptan-4-yl]methoxy]-4-pyridyl]pyrazolo[1,5-a]pyridin-2-amine] | –
8 | 0.0662 | Cc1cc(Nc2cc3cc(-c4cc(C(F)F)ncc4OCC(C)(C)O)ccn3n2)nc(C)n1 [Example 493, 1-[[6-(difluoromethyl)-4-[2-[(2,6-dimethylpyrimidin-4-yl)amino]pyrazolo[1,5-a]pyridin-5-yl]-3-pyridyl]oxy]-2-methyl-propan-2-ol] | –
9 | 0.0279 | Cc1cc(-c2ccn3nc(Nc4cc(C)nc(C)n4)cc3c2)c(OCC2(O)CCC2)cn1 [Example 217, 1-[[4-[2-[(2,6-dimethylpyrimidin-4-yl)amino]pyrazolo[1,5-a]pyridin-5-yl]-6-methyl-3-pyridyl]oxymethyl]cyclobutanol] | –
10 | 0.00301 | Cc1cc(-c2ccn3nc(Nc4cc(C)c(C(=O)NC5CC5)c(C)n4)cc3c2)c(O[C@H]2CC[C@H](O)CC2)cn1 [Example 334, N-cyclopropyl-6-[[5-[5-(4-hydroxycyclohexoxy)-2-methyl-4-pyridyl]pyrazolo[1,5-a]pyridin-2-yl]amino]-2,4-dimethyl-pyridine-3-carboxamide] | –
11 | 0.0616 | Cc1cc(-c2ccn3nc(Nc4cc(C)nc(C)n4)cc3c2)c(OCC2(C#N)CC2)cn1 [Example 560, 1-[[4-[2-[(2,6-dimethylpyrimidin-4-yl)amino]pyrazolo[1,5-a]pyridin-5-yl]-6-methyl-3-pyridyl]oxymethyl]cyclopropanecarbonitrile] | –
12 | 0.00406 | Cc1cc(-c2ccn3nc(Nc4cc(C)nc(C)n4)cc3c2)c(OCCC(C)(C)C#N)cn1 [Example 315, 4-[[4-[2-[(2,6-dimethylpyrimidin-4-yl)amino]pyrazolo[1,5-a]pyridin-5-yl]-6-methyl-3-pyridyl]oxy]-2,2-dimethyl-butanenitrile] | –

The next lines start with the compound.

Row | Structure (SMILES) | IC50 [1] [µM] | IC50 [µM]
13 | Cc1cc(-c2ccn3nc(Nc4cc(F)c(C(=O)NC5CC5)c(F)c4)cc3c2)c(O[C@H]2CC[C@H](O)CC2)cn1 [Example 614, N-cyclopropyl-2,6-difluoro-4-[[5-[5-(4-hydroxycyclohexoxy)-2-methyl-4-pyridyl]pyrazolo[1,5-a]pyridin-2-yl]amino]benzamide] | 0.0879 | –
14 | Cc1cc(-c2ccn3nc(Nc4ccc(C)nn4)cc3c2)c(OC[C@@]23CN[C@@H](CO2)C3)cn1 [Example 254, 5-[2-methyl-5-[[(1R,4R)-5-oxa-2-azabicyclo[2.2.1]heptan-4-yl]methoxy]-4-pyridyl]-N-(6-methylpyridazin-3-yl)pyrazolo[1,5-a]pyridin-2-amine] | 0.00637 | –
15 | Cc1cc(-c2ccn3nc(Nc4ccn(C)n4)cc3c2)c(OC[C@H]2CNCCO2)cn1 [Example 429, 5-[2-methyl-5-[[(2R)-morpholin-2-yl]methoxy]-4-pyridyl]-N-(1-methylpyrazol-3-yl)pyrazolo[1,5-a]pyridin-2-amine] | – | 0.0122
16 | Cc1cc(-c2cn3cc(NC(=O)C4CC4)nc3cn2)c(OC2CN(C)C2)cn1 [Example 654, N-[6-[2-methyl-5-(1-methylazetidin-3-yl)oxy-4-pyridyl]imidazo[1,2-a]pyrazin-2-yl]cyclopropanecarboxamide] | 0.0743 | –
17 | Cc1cc(-c2cn3cc(NC(=O)C4CC4)nc3cn2)c(O[C@H]2C[C@H]3COC[C@@H](C2)N3)cn1 [Example 505, N-[6-[2-methyl-5-[[(1S,5R)-3-oxa-9-azabicyclo[3.3.1]nonan-7-yl]oxy]-4-pyridyl]imidazo[1,2-a]pyrazin-2-yl]cyclopropanecarboxamide] | – | 0.012
18 | Cc1cc(-c2ccn3nc(NC(=O)C4CC4)cc3c2)c(O[C@@H]2CC[C@@H](O)C2)cn1 (stereo in doubt) [Example 569, (1*R, 3*R)—N-[5-[5-(3-hydroxycyclopentoxy)-2-methyl-4-pyridyl]pyrazolo[1,5-a]pyridin-2-yl]cyclopropanecarboxamide] | – | 0.0717
19 | COc1cc(Nc2cc3cc(-c4cc(C)ncc4OCC(C)(C)O)ccn3n2)ccc1C(=O)NC1CC1 [Example 643, N-cyclopropyl-4-[[5-[5-(2-hydroxy-2-methyl-propoxy)-2-methyl-4-pyridyl]pyrazolo[1,5-a]pyridin-2-yl]amino]-2-methoxy-benzamide] | 0.157 | –
20 | Cc1cc(-c2ccn3nc(Nc4cccnc4)cc3c2)c(OC[C@@H]2CNCCO2)cn1 [Example 131, 5-[2-methyl-5-[[(2S)-morpholin-2-yl]methoxy]-4-pyridyl]-N-(3-pyridyl)pyrazolo[1,5-a]pyridin-2-amine] | 0.0524 | –
21 | Cc1cc(Nc2cc3cc(-c4cc(OCC(F)F)ncc4OCC(C)(C)C#N)ccn3n2)nn(C2CC2)c1=O [Example 737, 3-((4-(2-((1-cyclopropyl-5-methyl-6-oxo-1,6-dihydropyridazin-3-yl)amino)pyrazolo[1,5-a]pyridin-5-yl)-6-(2,2-difluoroethoxy)pyridin-3-yl)oxy)-2,2-dimethylpropanenitrile] | 0.014 | –
22 | Cc1cc(-c2ccn3nc(NC(=O)C4CC4)cc3c2)c(OCC2NCC23CCOCC3)cn1 (racemic) [Example 472, Racemic-N-[5-[2-methyl-5-(7-oxa-2-azaspiro[3.5]nonan-3-ylmethoxy)-4-pyridyl]pyrazolo[1,5-a]pyridin-2-yl]cyclopropanecarboxamide] | – | 0.0263
23 | CC#Cc1cc(-c2ccn3nc(Nc4ccn(C)n4)cc3c2)c(OC[C@H]2OCC[C@@H]2O)cn1 [Example 301, (2R,3S)-2-[[4-[2-[(1-methylpyrazol-3-yl)amino]pyrazolo[1,5-a]pyridin-5-yl]-6-prop-1-ynyl-3-pyridyl]oxymethyl]tetrahydrofuran-3-ol] | 0.00773 | –
24 | Cc1cc(-c2cn3cc(Nc4cnn(C)c4)nc3cn2)c(O[C@H]2C[C@H]3COC[C@@H](C2)N3)cn1 [Example 322, 6-[2-methyl-5-[[(1S,5R)-3-oxa-9-azabicyclo[3.3.1]nonan-7-yl]oxy]-4-pyridyl]-N-(1-methylpyrazol-4-yl)imidazo[1,2-a]pyrazin-2-amine] | – | 0.0015
25 | Cc1cc(-c2ccn3nc(Nc4nn(C)cc4F)cc3c2)c(O[C@H]2C[C@H]3COC[C@@H](C2)N3)cn1 [Example 399, N-(4-fluoro-1-methyl-pyrazol-3-yl)-5-[2-methyl-5-[[(1S,5R,7s)-3-oxa-9-azabicyclo[3.3.1]nonan-7-yl]oxy]-4-pyridyl]pyrazolo[1,5-a]pyridin-2-amine] | – | 0.0442
26 | Cc1cc(-c2ccn3nc(NC(=O)C4CC4)cc3c2)c(OC[C@@H]2CCN2CCF)cn1 [Example 573, N-[5-[5-[[(2S)-1-(2-fluoroethyl)azetidin-2-yl]methoxy]-2-methyl-4-pyridyl]pyrazolo[1,5-a]pyridin-2-yl]cyclopropanecarboxamide] | – | 0.074
27 | Cc1cc(-c2ccn3nc(Nc4cc(C)nc(C)n4)cc3c2)c(OC[C@@H]2COC(=O)N2)cn1 [Example 342, (4R)-4-[[4-[2-[(2,6-dimethylpyrimidin-4-yl)amino]pyrazolo[1,5-a]pyridin-5-yl]-6-methyl-3-pyridyl]oxymethyl]oxazolidin-2-one] | – | 0.032
28 | CC(C)(C#N)COc1cnc(OC(F)F)cc1-c1ccn2nc(NC(=O)C3CC3)cc2c1 [Example 665, N-[5-[5-(2-cyano-2-methyl-propoxy)-2-(difluoromethoxy)-4-pyridyl]pyrazolo[1,5-a]pyridin-2-yl]cyclopropanecarboxamide] | 0.0244 | –
29 | CC#Cc1cc(-c2ccn3nc(NC(=O)C4CC4)cc3c2)c(O[C@H]2C[C@H]3COC[C@@H](C2)N3)cn1 [Example 436, N-[5-[5-[[(1S,5R)-3-oxa-9-azabicyclo[3.3.1]nonan-7-yl]oxy]-2-prop-1-ynyl-4-pyridyl]pyrazolo[1,5-a]pyridin-2-yl]cyclopropanecarboxamide] | – | < 0.000847
